Experiment [1] deals with HCT-116 cells. In words: MTT assay, IC50 determination. Format: cell-based. To be noted: Homo sapiens, HCT-116, colorectal cancer cells, comparator. How it is done: HCT-116 (colon cancer cell line) was obtained from the American Type Culture Collection (ATCC). The cancer cell line was grown in Dulbecco’s Modified Eagle’s Medium (DMEM) supplemented with 10% fetal bovine serum (FBS), penicillin/streptomycin (100 U/mL and 100 μg/mL, respectively) and 2 mM L-glutamine. The cells were maintained at 37 °C in 5% CO2.
The cytotoxic activity of nortopsintin analogs (4a–4j) was determined by the national cancer institute (NCI, Bethesda, Maryland, USA) against 60 different cancer cell lines at a single concentration of (10^−5 M). For the determination of IC50 value, we used MTT assay kit (Sigma) according to the manufacturer’s protocol. HCT-116 cells were seeded into a 96-well plate at a concentration of 20,000 cells/well. After 24 h, the media was aspirated and replaced with serum-free media containing serial dilutions of the 4i compound. The cells were treated for 48 h in triplicates. […] The percentage of cytotoxicity was calculated using the following equation: % Cytotoxicity = [1 − (AVx/AVNC)] × 100.
Where, AVx denotes the average absorbance of the sample and AVNC denotes the average absorbance of the negative control. The absorbance was measured at 570 nm with reference at 690 nm.
(Tetrazolium dyes change colour on reduction, which living cells bring about.)

For experiment [2], the system named is MCF7 cancer cell line. On the set-up: method as in PMID 28688277. Particulars: cited from earlier work.
For experiment [3], the system named is CDK1. Details: method as in PMID 28688277. To be noted: cited from earlier work.
Experiment [4] has as its system P388 cell line. Details: method as in PMID 11425579. To be noted: cited from earlier work.
Experiment [5] deals with A549 cell line. On the set-up: method as in PMID 11425579. Particulars: cited from earlier work.

In general, IC50 refers to the concentration that inhibits the measured activity by half.

For the compound `COc1cccc2c1C(=O)c1c(O)c3c(c(O)c1C2=O)C[C@@](O)(C(=O)CO)C[C@@H]3O[C@H]1C[C@H](N)[C@H](O)[C@H](C)O1` [doxorubicin, reference compound], it took 10.1 µM to reach half-maximal inhibition in experiment [1] (IC50).

Regarding `COCCn1cc(-c2nc(-c3c[nH]c4ncccc34)cs2)c2cc(OC)ccc21` [III], the antitumor activity result in experiment [2] was “demonstrated antitumor activity”. The “CDK1 activity in vitro” value in experiment [3] was “inhibiting CDK1 activity in vitro”. Consider `COc1ccc2c(-c3cc(C(F)(F)F)cc(-c4cn(S(=O)(=O)c5ccc(C)cc5)c5cc(OC)ccc45)n3)cn(S(=O)(=O)c3ccc(C)cc3)c2c1` [II, bis(indolyl)-4-trifluoromethylpyridine], for which the IC50 in experiment [4] was 4.3 µM; in experiment [5], 1.7 µM.

The record behind these values is article PMC11530689, “Anti colorectal cancer activity and in silico studies of novel pyridine nortopsentin analog as cyclin dependent kinase 6 inhibitor” (Scientific Reports, 2024).
